According to patent US20250275968A1, “INHIBITORS OF TAU PROTEINS” (DEUTSCHES ZENTRUM FÜR NEURODEGENERATIVE ERKRANKUNGEN E.V., priority 2022, published 2025):
Structures can show the parent of a compound that is named as a salt.

Legend:
[1] = tested on: HEK293T biosensor cells expressing the human tau repeat domain (RD) harboring the P301L/V337M mutation (TauRD^LM-GFP); assay: HEK biosensor cell tau seeding assay; type: cell-based; settings: for compound concentration up to which total amount of cells remained close to 100% (low toxicity): HEK biosensor cells, relative to vehicle (DMSO)
Description: Compound stock solutions were prepared as 10 mM compound in DMSO.
HEK293T biosensor cells expressing the human tau repeat domain (RD) harboring the P301L/V337M mutation and fused to a C-terminal GFP tag (named TauRD^LM-GFP) were engineered to probe Tau seeding in cellula (Reference: Liu, S., Hossinger, A., Heumüller, S E. et al. Highly efficient intercellular spreading of protein misfolding mediated by viral ligand-receptor interactions. Nat Commun 12, 5739 (2021). https://doi.org/10.1038/s41467-021-25855-2). HEK cells expressing the P301L human full-length Tau, C-terminally tagged with GFP were incubated with pre-sonicated hTau40^P301L fibrils to induce Tau aggregate formation. Cells were harvested and the resulting cell lysate was used to seed Tau aggregation in further experiments with HEK TauRD^LM-GFP cells.
In a typical seeded assay, HEK cells were incubated with cell lysate, compounds (0-40 μM) and lipofectamine for 22-48 hours. Negative control experiments in the absence of compounds (only with vehicle DMSO) and in the presence of cell lysate were performed in parallel.
Dose response curves were constructed by quantifying the number of cells with aggregates for each compound concentration. The curves were fitted with a sigmoid function using Graphpad PRISM version 8. The inhibitory concentration at 50% activity (IC50) was determined for each compound.

2N4R Tau fibrils = target: T1, 2N4R Tau fibrils (Homo sapiens, UniProt P10636); assay: Saturation transfer difference (STD) NMR with tau fibrils; type: binding; settings: 48-fold excess of compound, 100 mM NaCl, 2.5% (v/v) DMSO, pH 6.8, 37° C.
T1 construct: Full-length 2N4R tau was incubated with Osimertinib mesylate
Description: 2N4R Tau fibrils were prepared using the aggregation procedure described in the section in vitro assay 1 without Thioflavin T. The mole ratio of “free” compound to fibrils was 48:1 (corresponding to a total compound concentration of 250 μM and a total fibril concentration of 5 μM Tau). The NMR samples were prepared in 50 mM sodium phosphate with 100 mM NaCl and 2.5% (v/v) DMSO at pH 6.8. The spectra were recorded at 37° C. using a Bruker 700 MHz spectrometer equipped with a triple resonance cryoprobe. 1D ^1H-NMR STD spectra were acquired in an interleaved manner, alternating between off-resonance irradiation at 60 ppm and on-resonance irradiation at −2 ppm.

[2] = tested on: tau-induced degeneration of Drosophila eyes (GMR-Gal4/WT tau); assay: Drosophila neurodegeneration model (eye degeneration); type: in vivo
Description: Stock solutions of individual compounds were prepared by dissolving 10 mg of the compound in 100 μl of 100% DMSO. Osimertinib, Osimertinib mesylate and AZ7550 mesylate were orally fed to the flies by mixing them with food. The final concentration of each compound, which was used for treating the Drosophila, was derived on the basis of recommended concentrations for human use (reference concentration) based on body weight.
We have used three concentrations for each compound. One was equal to the reference concentration, and two were higher than the reference concentration. Final concentrations of different compounds mixed with fly food are: Osimertinib mesylate, […]; Osimertinib, […]; AZ 7550 mesylate, 10 µM and 20 µM. After hatching, first instar larvae were transferred onto the food containing one of the compounds. Food mixed with drug at required concentration was replaced with fresh food every 48 h.
Light microscopy was performed after mounting the fly heads on the glass slide using a double-sided adhesive tape. Full-eye images were captured with the help of an Infinity Analyze camera attached to an Olympus SZX7 microscope with a halogen light source. Total eye surface area and degenerated eye surface area were marked and calculated with Infinity Analyze software (Lumenera corporation). Percentage of degenerated area was calculated and plotted using GraphPad Prism 8.
After the eclosion, treated and control flies (2-3 days old) were fixed in 1% formaldehyde for two hours, followed by serial dehydration steps of 12 hrs each in 25%, 50%, 75% and 100% ethanol were carried out. Flies were stored in 100% ethanol and dried with CPD before mounting on the stab for imaging. Eye Images were captured at 150× and analyzed using Infinity Analyze software.

2N4R tau^C291S,C322S = 2N4R tau^C291S,C322S (Homo sapiens, UniProt P10636, C608S/C639S); assay: In vitro seeded aggregation assay of cysteine-free tau mutant (ThT fluorescence); type: biochemical; settings: mole ratios 1:3 and 1:10
Description: (§1) Seeded aggregation assays were performed as described above but with 1.0% of the well volume occupied by the seeding mixture sonicated for 1 minute. The assays were performed in the presence and absence of compounds, and working concentrations ranged from 0-250 μM compound. Analyses of the fluorescence curves were performed using Graphpad PRISM version 8. Fluorescence data were fit to a sigmoid function. The number of hours corresponding to half-maximal ThT FluorescenceTM as well as the span of fluorescence intensity (Span) were determined for each sigmoid curve. Statistically significant differences were determined by one-way ANOVA analysis with Dunnett's multiple comparison test or unpaired t-test. The described seeded aggregation protocol was likewise applied to 3R Tau and the […]/[…] mutant of 2N4R Tau.

3R tau (tau^3R) = assay: In vitro seeded aggregation assay of 3R tau (ThT fluorescence); type: biochemical; settings: mole ratios 1:3 and 1:10
Description: as §1

Full-length 2N4R tau = target: T2, Full-length 2N4R tau (Homo sapiens, UniProt P10636); assay: MS/MS analysis of compound adduct in tau; type: binding; settings: 1:5 mole ratio tau:compound, overnight at 37° C.
T2 construct: Full-length 2N4R tau was incubated with Osimertinib mesylate
Description: Compounds (330 μM) were incubated with 2N4R Tau (65 μM) in buffer (25 mM HEPES, 10 mM KCl, 5 mM MgCl2, pH 7.2) for 16 h at 37° C. then stored at 4° C. until in-gel digestion.
In-gel digestion using trypsin (Sigma Aldrich) followed by extraction of peptides for mass spectrometry were performed as described previously (Reference: Shevchenko, A., Tomas, H., Havlis, J., Olsen, J. V., and Mann, M. (2006). In-gel digestion for mass spectrometric characterization of proteins and proteomes. Nature protocols 1, 2856-2860). Extracted peptides were resuspended in 2% acetonitrile and 0.05% TFA and analyzed using a Orbitrap Exploris 480 Mass Spectrometer (Thermo Fisher). The mass spectrometer used an emitter voltage at […] and ion transfer tube temperature at 300° C. Full scans were recorded in the range 350 to 1600 m/z with a mass resolution of 15000. Peptides were fragmented in the collision cell with a 28% energy setting. Tandem mass spectra were acquired using Scan Range Mode “Define First Mass” and isolation window of 1.6 m/z with a mass resolution of 15000.

Chain of 2N4R tau^C291S,C322S (P10636 1-441 isoform P10636-8 C291S/C322S): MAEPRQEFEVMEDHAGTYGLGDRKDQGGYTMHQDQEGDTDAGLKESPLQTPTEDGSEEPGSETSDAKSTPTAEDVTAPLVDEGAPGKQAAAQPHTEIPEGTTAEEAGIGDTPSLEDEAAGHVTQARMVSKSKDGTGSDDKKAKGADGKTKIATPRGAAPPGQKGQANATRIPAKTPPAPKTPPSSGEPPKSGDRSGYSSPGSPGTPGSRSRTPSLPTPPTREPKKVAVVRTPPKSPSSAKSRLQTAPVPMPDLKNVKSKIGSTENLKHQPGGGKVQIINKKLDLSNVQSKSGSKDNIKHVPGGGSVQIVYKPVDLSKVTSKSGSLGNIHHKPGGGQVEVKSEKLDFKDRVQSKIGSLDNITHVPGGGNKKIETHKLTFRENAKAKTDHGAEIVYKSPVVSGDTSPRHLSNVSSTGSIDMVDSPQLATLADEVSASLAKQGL
T2 sequence (P10636 1-441 isoform P10636-8): as the sequence (P10636 1-441 isoform P10636-8 C291S/C322S) above, with S291C, S322C counted along it
T1 sequence (P10636 1-441 isoform P10636-8): as the sequence (P10636 1-441 isoform P10636-8 C291S/C322S) above, with S291C, S322C counted along it

SMILES | inhibition of seeded aggregation of tau in HEK biosensor cells ([1]; 0.25 μM or 7.5 μM, 22 hours, lipofectamine) | compound concentration up to which total amount of cells remained close to 100% (low toxicity) [1] | aggregate formation in cells ([1]; higher concentration (7.5 μM), 22 hours) | STD effect with tau fibrils (fibril binding epitopes) (2N4R Tau fibrils) | signs of eye degeneration in SEM micrographs ([2]; compared to control with GMR-Gal4/WT tau) | normalized Span of ThT fluorescence (2N4R tau^C291S,C322S) | normalized Tm (midpoint of aggregation curve) (2N4R tau^C291S,C322S) | normalized Span of ThT fluorescence (3R tau (tau^3R)) | normalized Tm (midpoint of aggregation curve) (3R tau (tau^3R)) | tau peptide spectrum matches showing compound-modified cysteine sites (Full-length 2N4R tau) | covalent modification of C291 and C322 (peptide mass spectra, LC-MS/MS) (Full-length 2N4R tau; tryptic digestion) | tau-induced degeneration of Drosophila eyes (percent degeneration, light microscopy) ([2]; GMR-Gal4/WT tau flies treated in food from larvae stage to adult stage)
C=CC(=O)Nc1cc(Nc2nccc(-c3cn(C)c4ccccc34)n2)c(OC)cc1N(C)CCN(C)C [Osimertinib, N-[2-(2-Dimethylaminoethylmethylamino)-4-methoxy-5-[[4-(1-methylindol-3-yl)pyrimidin-2-yl]amino]phenyl]prop-2-enamide] | inhibits the seeded aggregation of tau | about 5.0 μM | decreased aggregate formation | Protons showing STD effects | visibly reduced signs of degeneration | – | – | – | – | – | – | –
C=CC(=O)Nc1cc(Nc2nccc(-c3c[nH]c4ccccc34)n2)c(OC)cc1N(C)CCN(C)C [Compound 3, N-[2-[[2-(dimethylamino)ethyl]methylamino]-5-[[4-(1H-indol-3-yl)-2-pyrimidinyl]amino]-4-methoxyphenyl]-2-Propenamide] | – | about 5.0 μM | – | Protons showing STD effects | – | – | – | – | – | – | – | –
C=CC(=O)Nc1cc(Nc2nccc(-c3cn(C)c4ccccc34)n2)c(OC)cc1N(C)CCN(C)C [Osimertinib mesylate, N-[2-(2-Dimethylaminoethylmethylamino)-4-methoxy-5-[[4-(1-methylindol-3-yl)pyrimidin-2-yl]amino]phenyl]prop-2-enamide Mesylate Salt] | – | – | – | – | – | not observed | do not show a clear dose-dependence | statistically lower normalized Span values | do not show a clear dose-dependence | about 350 | confirm covalent modification of cysteines in tau | rescue tau-induced degeneration of Drosophila eyes
